Measurements: patent publication US20100087658A1, “METHODS AND INTERMEDIATES FOR SYNTHESIS OF SELECTIVE DPP-IV INHIBITORS” (Phenomix Corporation, priority 1996, published 2010)

Details: crystalline form as isolated

For `O=C([O-])CN(C(=O)OCc1ccccc1)C1CCN(C(=O)OCc2ccccc2)C1.[Na+]` (stereo not shown) [II-Cbz-Na, sodium salt of (1-carbobenzyloxypyrrolidin-3-yl)-N-carbobenzyloxyglycine], which water solubility is on record?
Its water solubility is “highly water-soluble”.
